Values joined by “and” are separate entries in the source; they are usually repeats but may differ in a detail not shown here. Equal values may be shown once. ± gives the uncertainty stated by the source.
Columns and labels:
[1] = xn = mol fraction of the nth substance listed

C1CCCC1
viscosity [mPa·s]
Settings	293.15 K	303.15 K	313.15 K
100 kPa	0.428 ± 0.03	0.385 ± 0.03	0.348 ± 0.03
101 kPa	–	0.387 ± 0.0033	–
101.3 kPa	–	–	0.3545 ± 0.004

C=CCc1ccc2c(c1)OCO2
Settings	viscosity [mPa·s]
298.15 K, 101 kPa	2.29 ± 0.028

CC(=O)OC(C)=O
viscosity [mPa·s]
Settings	298.15 K	313.15 K	323.15 K
101 kPa	0.842 ± 0.008	0.693 ± 0.007	–
101.33 kPa	0.831 ± 0.0083	–	0.611 ± 0.0061

CC(C)(C)C1CCCCC1
102 kPa
Settings	viscosity [mPa·s]
293.15 K	1.7 ± 0.02
303.15 K	1.42 ± 0.02
313.15 K	1.21 ± 0.02
323.15 K	1.04 ± 0.02

CCC(=O)CC
viscosity
Settings	298.15 K	303.15 K	308.15 K	313.15 K	318.15 K
100 kPa	–	0.428 ± 0.017 mPa·s	–	0.366 ± 0.015 mPa·s	–
101 kPa	0.449 ± 0.006 mPa·s and 0.437 ± 0.016 mPa·s	–	0.396 ± 0.005 mPa·s and 0.393 ± 0.016 mPa·s	0.376 ± 0.011 mPa·s and 0.376 ± 0.005 mPa·s	–
101.33 kPa	0.408 ± 0.005 mPa·s	0.424 ± 0.012 mPa·s	0.373 ± 0.005 mPa·s	–	0.351 ± 0.005 mPa·s

CCC(C)CC(C)C (centres undefined)
100 kPa
Settings	viscosity [mPa·s]
293.15 K	0.476 ± 0.01
298.15 K	0.455 ± 0.01
303.15 K	0.434 ± 0.009
308.15 K	0.416 ± 0.009
313.15 K	0.4 ± 0.009

CCN(CC)C(C)=O
Settings	viscosity [mPa·s]
298.16 K, 101 kPa	1.226 ± 0.011

CN1CCCC1=O
viscosity
Settings	293.15 K	298 K	303 K	303.15 K	313 K	313.15 K	318 K	323 K	323.15 K
100 kPa	1.853 ± 0.076 mPa·s	–	–	–	–	–	–	–	–
101 kPa	1.91 ± 0.018 mPa·s	1.61 ± 0.16 mPa·s	1.5 ± 0.15 mPa·s	1.623 ± 0.016 mPa·s and 1.521 ± 0.019 mPa·s	1.29 ± 0.13 mPa·s	1.401 ± 0.014 mPa·s and 1.3 ± 0.52 mPa·s	1.22 ± 0.12 mPa·s	1.12 ± 0.11 mPa·s	1.231 ± 0.013 mPa·s

C[n+]1ccn(CCCCCn2cc[n+](C)c2)c1.O=S(=O)([N-]S(=O)(=O)C(F)(F)F)C(F)(F)F.O=S(=O)([N-]S(=O)(=O)C(F)(F)F)C(F)(F)F
101 kPa
Settings	viscosity
293.15 K	1125 ± 120 mPa·s and 1123 ± 120 mPa·s
303.15 K	554.9 ± 45 mPa·s and 556.8 ± 45 mPa·s
313.15 K	313.4 ± 20 mPa·s and 310.4 ± 19 mPa·s
323.15 K	192.3 ± 9 mPa·s and 188.8 ± 8.7 mPa·s

NCCO
viscosity
Settings	293.15 K	298.15 K	303.15 K	313.15 K	318.15 K	323.15 K
101 kPa	31.3 ± 0.52 mPa·s	18.64 ± 7.5 mPa·s	15.34 ± 0.18 mPa·s and 14.05 ± 0.1 mPa·s	9.9 ± 4 mPa·s and 9.972 ± 0.14 mPa·s and 9.95 ± 0.07 mPa·s	8.1 ± 3.2 mPa·s	6.88 ± 0.08 mPa·s and 9.44 ± 0.18 mPa·s and 7.01 ± 0.1 mPa·s
101.3 kPa	–	–	–	9.702 ± 0.069 mPa·s	–	–

NCCO.O=S(=O)([N-]S(=O)(=O)C(F)(F)F)C(F)(F)F.[Li+]
Settings	viscosity [mPa·s]
323.15 K, 101 kPa	1157 ± 260

OCc1ccccc1
Settings	viscosity
293.15 K, 100 kPa	6.421 ± 0.13 mPa·s
293.15 K, 101.33 kPa	6.536 ± 0.054 mPa·s
298.15 K, 101 kPa	4.936 ± 0.21 mPa·s and 5.54 ± 0.11 mPa·s and 5.737 ± 0.15 mPa·s
298.15 K, 101.3 kPa	5.313 ± 0.063 mPa·s
298.15 K, 101.33 kPa	5.276 ± 0.14 mPa·s
303.15 K, 101.3 kPa	4.609 ± 0.26 mPa·s and 4.515 ± 0.054 mPa·s
308.15 K, 101 kPa	3.66 ± 0.16 mPa·s and 4.045 ± 0.19 mPa·s
308.15 K, 101.3 kPa	3.877 ± 0.047 mPa·s
308.15 K, 101.33 kPa	3.891 ± 0.11 mPa·s
313.15 K, 101 kPa	3.121 ± 0.14 mPa·s and 3.614 ± 0.17 mPa·s and 3.51 ± 0.07 mPa·s
318.15 K, 101.33 kPa	2.945 ± 0.081 mPa·s
323.15 K, 101 kPa	2.646 ± 0.022 mPa·s and 2.548 ± 0.11 mPa·s
323.15 K, 101.33 kPa	2.591 ± 0.071 mPa·s

CCC(=O)CC + ClC=C(Cl)Cl
viscosity [mPa·s], [1], 101.33 kPa
Settings	x2 = 0.1126	x2 = 0.2042	x2 = 0.2941	x2 = 0.4591	x2 = 0.5988	x2 = 0.6807	x2 = 0.7837	x2 = 0.8997
298.15 K	0.439 ± 0.006	0.463 ± 0.006	0.489 ± 0.006	0.532 ± 0.007	0.57 ± 0.007	0.582 ± 0.007	0.598 ± 0.008	0.614 ± 0.008
308.15 K	0.402 ± 0.005	0.426 ± 0.006	0.449 ± 0.006	0.491 ± 0.006	0.523 ± 0.007	0.539 ± 0.007	0.558 ± 0.007	0.574 ± 0.007
318.15 K	0.379 ± 0.005	0.401 ± 0.005	0.422 ± 0.006	0.462 ± 0.006	0.494 ± 0.006	0.508 ± 0.007	0.525 ± 0.007	0.544 ± 0.007

OCc1ccccc1 + Clc1ccccc1
[1], 303.15 K, 101 kPa
Settings	viscosity [mPa·s]
x1 = 0.1372	0.9498 ± 0.009
x1 = 0.2844	1.158 ± 0.011
x1 = 0.3371	1.26 ± 0.012
x1 = 0.4255	1.459 ± 0.013
x1 = 0.5741	1.907 ± 0.017
x1 = 0.6507	2.212 ± 0.02
x1 = 0.7556	2.713 ± 0.024
x1 = 0.8031	2.982 ± 0.026
x1 = 0.9053	3.662 ± 0.032

CCOC(=O)CC#N + N#CCc1ccccc1
viscosity [mPa·s], [1], 101 kPa
Settings	x2 = 0.1383	x2 = 0.4842	x2 = 0.8426
303.15 K	2.135 ± 0.025	1.995 ± 0.021	–
313.15 K	–	–	1.535 ± 0.016

CC(=O)OC(C)=O + O
viscosity [mPa·s], [1], 101 kPa
Settings	x1 = 0.2	x1 = 0.4	x1 = 0.45	x1 = 0.5	x1 = 0.6	x1 = 0.8
298.15 K	2.189 ± 0.018	1.852 ± 0.017	1.497 ± 0.014	1.193 ± 0.012	1.059 ± 0.01	0.936 ± 0.009
313.15 K	1.484 ± 0.018	1.294 ± 0.013	1.104 ± 0.011	0.921 ± 0.009	0.835 ± 0.008	0.735 ± 0.007

CCCCCCCCCCCCCC[P+](CCCCCC)(CCCCCC)CCCCCC.[O-]c1ccccc1 + O
Settings	viscosity [mPa·s]
[1], 298.15 K, 100 kPa, x2 = 0.69	183 ± 6

CCN(CC)C(C)=O + O
[1], 298.16 K, 101 kPa
Settings	viscosity [mPa·s]
x2 = 0.065	1.32 ± 0.01
x2 = 0.1626	1.56 ± 0.02
x2 = 0.255	1.86 ± 0.02
x2 = 0.3529	2.26 ± 0.02
x2 = 0.4791	2.92 ± 0.03
x2 = 0.6036	3.7 ± 0.03
x2 = 0.6894	4.22 ± 0.03
x2 = 0.7465	4.38 ± 0.03
x2 = 0.7702	4.36 ± 0.03
x2 = 0.8188	4.2 ± 0.04
x2 = 0.9049	2.45 ± 0.02

NCCO.O=S(=O)([N-]S(=O)(=O)C(F)(F)F)C(F)(F)F.[Li+] + O
[1], 323.15 K, 101 kPa
Settings	viscosity [mPa·s]
x1 = 0.03	1.2 ± 0.11
x1 = 0.0597	2.1 ± 0.19
x1 = 0.1001	3.72 ± 0.32
x1 = 0.1995	8.33 ± 0.71
x1 = 0.298	23.19 ± 2
x1 = 0.4016	56.22 ± 4.7
x1 = 0.4908	103.5 ± 10
x1 = 0.6602	251.5 ± 34
x1 = 0.8109	498.1 ± 86
x1 = 0.8996	741.6 ± 150
